Test results published in paper PMC6375636, “Monotherapy with a low-dose lipopeptide HIV fusion inhibitor maintains long-term viral suppression in rhesus macaques” (PLoS Pathogens, 2019).
Peptide text beside a SMILES is read from it. * marks the point of attachment. Stearoyl = CCCCCCCCCCCCCCCCCC(=O)*

Columns and labels:
HIV-1HXB2 Env = molecular target: T1, HIV-1HXB2 Env (Human immunodeficiency virus type 1 group M subtype B, UniProt P04578); assay: HIV-1HXB2 Env-mediated cell-cell fusion (HL2/3 effector, TZM-bl target, luciferase reporter); format: cell-based
T1 construct: HL2/3 cells, which stably express high levels of Env, Gag, Tat, Rev, and Nef proteins of the integrated HIV-1 molecular clone HXB2/3gpt; host or cells: HL2/3 cells (effector), cocultured with TZM-bl target cells
T1 sequence (P04578 512-856): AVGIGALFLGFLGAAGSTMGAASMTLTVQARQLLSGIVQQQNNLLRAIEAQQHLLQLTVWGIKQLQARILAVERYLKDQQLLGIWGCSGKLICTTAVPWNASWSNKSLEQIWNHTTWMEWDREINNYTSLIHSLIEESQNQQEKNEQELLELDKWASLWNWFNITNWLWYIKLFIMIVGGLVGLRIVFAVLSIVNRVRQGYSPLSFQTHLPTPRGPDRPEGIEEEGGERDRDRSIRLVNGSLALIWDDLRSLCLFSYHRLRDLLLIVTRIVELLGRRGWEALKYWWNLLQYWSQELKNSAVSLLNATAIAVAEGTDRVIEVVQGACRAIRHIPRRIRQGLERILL
Method: The inhibitory activities of inhibitors on HIV-1HXB2 Env-mediated cell-cell fusion were determined by a reporter gene assay based on the activation of an HIV LTR-driven luciferase cassette in TZM-bl cells (target) by HIV-1 tat from HL2/3 cells (effector). Briefly, 1 x 10^4/well of TZM-bl cells were plated in 96-well plates and incubated at 37°C overnight. Then, 3 x 10^4/well of HL2/3 cells were cocultured with target cells for 6 h at 37°C in the presence or absence of an inhibitor at graded concentrations. Luciferase activity was measured using luciferase assay reagents and a Luminescence Counter (Promega, Madison, Wisconsin, USA).

[1] = molecular target: T2, gp41 NHR-derived target mimic peptide N39 (Human immunodeficiency virus type 1 group M subtype B, UniProt P04578); assay: CD spectroscopy of lipopeptides in complex with target mimic peptide N39; format: binding, HIV-1; design: [θ]222: unit not given here; details: complex with N39, each peptide 10 μM in PBS; representative of 2 assays
T2 construct: the gp41 NHR-derived target mimic peptide N39
T2 sequence (P04578 528-566): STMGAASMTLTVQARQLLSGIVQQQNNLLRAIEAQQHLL
Source text: Spectra were corrected by subtracting a solvent blank.

[2] = tested on: HIV-1NL4-3(D36G) pseudovirus; format: cell-based; details: Fig 1; NL4-3(D36G) pseudovirus; mean ± SD of three assays in triplicate; read-out: Anti-HIV activity (IC50, pM) NL4-3 entry
Method: The inhibitory activities of inhibitors against HIV-1 pseudoviruses and replication-competent isolates were measured as described previously. Briefly, HIV-1 pseudoviruses were generated via the cotransfection of HEK293T cells with an Env-expressing plasmid and a backbone plasmid that encodes Env-defective, luciferase-expressing HIV-1 genome (pSG3Δenv). Viral stocks of replication-competent HIV-1 isolates were generated by transfecting viral molecular clones into HEK293T cells. […] Inhibitors were prepared in 3-fold dilutions, mixed with 100 TCID50 of a virus, and then incubated for 1 h at room temperature. […] Luciferase activity was measured as described above.

[3] = lipopeptide alone, 10 μM in PBS; [θ]222 / -33,000; representative of 2 assays
HIV-1JRCSF = format: cell-based; details: Fig 1; replication-competent virus; mean ± SD of three assays in triplicate; read-out: Anti-HIV activity (IC50, pM) JRCSF infection
Method: The inhibitory activities of inhibitors against HIV-1 pseudoviruses and replication-competent isolates were measured as described previously. Briefly, HIV-1 pseudoviruses were generated via the cotransfection of HEK293T cells with an Env-expressing plasmid and a backbone plasmid that encodes Env-defective, luciferase-expressing HIV-1 genome (pSG3Δenv). Viral stocks of replication-competent HIV-1 isolates were generated by transfecting viral molecular clones into HEK293T cells. Culture supernatants were harvested at 48 h posttransfection, and 50% tissue culture infectious doses (TCID50) in TZM-bl cells were determined. Inhibitors were prepared in 3-fold dilutions, mixed with 100 TCID50 of a virus, and then incubated for 1 h at room temperature. The mixture was added to TZM-bl cells (10^4/well), and the cells were incubated for additional 48 h at 37°C. Luciferase activity was measured as described above.

SMILES	IC50 (HIV-1HXB2 Env)	Helix content (%) [1]	[θ]222 [1]	IC50 [2]	Helix content (%) [3]	IC50 (HIV-1JRCSF)
CCCCCCCCCCCCCCCCCC(=O)NCCCC[C@H](NC(=O)[C@H](CCCCN)NC(=O)[C@H](CC(C)C)NC(=O)[C@H](CCC(=O)O)NC(=O)[C@H](CCC(=O)O)NC(=O)[C@H](CCC(=O)O)NC(=O)[C@H](CC(N)=O)NC(=O)[C@H](CCCCN)NC(=O)[C@H](CCCCN)NC(=O)[C@H](CCC(N)=O)NC(=O)[C@H](CCC(N)=O)NC(=O)[C@H](CCC(=O)O)NC(=O)[C@H](CCC(=O)O)NC(=O)[C@H](C)NC(=O)[C@H](CCCCN)NC(=O)[C@H](CCCCN)NC(=O)[C@H](CC(C)C)NC(=O)[C@H](CC(C)C)NC(=O)[C@H](CCC(=O)O)NC(=O)[C@H](CCC(=O)O)NC(=O)[C@@H](NC(=O)[C@H](CCCCN)NC(=O)[C@H](CCC(N)=O)NC(=O)[C@H](CCC(=O)O)NC(=O)[C@H](Cc1c[nH]c2ccccc12)NC(C)=O)[C@@H](C)CC)C(N)=O [LP-91] (Ac-WEQKIEELLKKAEEQQKKNEEELKK(Stearoyl)-NH2)	0.0131 ± 0.00125 nM	55%	-18156	7.33 ± 0.49 pM	42%	11.1 ± 2.13 pM
CCCCCCCCCCCCCCCCCC(=O)NCCCC[C@H](NC(=O)[C@H](CCCCN)NC(=O)[C@H](CC(C)C)NC(=O)[C@H](CCC(=O)O)NC(=O)[C@H](CCC(=O)O)NC(=O)[C@H](CCC(=O)O)NC(=O)[C@H](CC(N)=O)NC(=O)[C@H](CCCCN)NC(=O)[C@H](CCCCN)NC(=O)[C@H](CCC(N)=O)NC(=O)[C@H](CCC(N)=O)NC(=O)[C@H](CCC(=O)O)NC(=O)[C@H](CCC(=O)O)NC(=O)[C@H](C)NC(=O)[C@H](CCCCN)NC(=O)[C@H](CCCCN)NC(=O)[C@H](CC(C)C)NC(=O)[C@H](CC(C)C)NC(=O)[C@H](CCC(=O)O)NC(=O)[C@H](CCC(=O)O)NC(=O)[C@@H](NC(C)=O)[C@@H](C)CC)C(N)=O [LP-92] (Ac-IEELLKKAEEQQKKNEEELKK(Stearoyl)-NH2)	0.189 ± 0.0199 nM	38%	-12476	168 ± 20.6 pM	16%	229 ± 28.4 pM
